Laboratory results reported in patent US7435834B2, “2-thia-dibenzoazulenes as inhibitors of tumour necrosis factor production and intermediates for the preparation thereof” (GlaxoSmithKline Istrazivacki Center Zagreb D.O.O., priority 2002, dated 2008).

Tested on: TNF-α and IL-1 secretion
Test: investigated assays, not specified which (TNF-α/IL-1 secretion in human PBMC and mouse peritoneal macrophages in vitro, LPS-induced TNF-α/IL-1 secretion in mice, writhing assay, LPS-induced shock in mice)
Details: assays not named; active means: IC50 20 μM or lower (human PBMC), IC50 10 μM or lower (mouse macrophages), 30% or more TNF-α inhibition at 10 mg/kg, analgetic activity as acetylsalicylic acid or better, survival 40% or more at 30 mg/kg
Procedure: The inhibitory action of the present compounds upon TNF-α and IL-1 secretion was determined by the following in vitro and in vivo experiments:
Determination of TNF-α and IL-1 Secretion in Human Peripheral Blood Mononuclear Cells in vitro
Human peripheral blood mononuclear cells (PBMC) were prepared from heparinized whole blood after separating PBMC on Ficoll-Paque™Plus (Amersham-Pharmacia). […] The IL-1 level was determined in an assay under the same conditions and with the same number of cells and the same concentration of stimuli stimulus by ELISA procedure (R&D Systems). The percentage of inhibition of TNF-α or IL-1 production was calculated by the equation: % inhibition=[1−(TS−NC)/(PC−NC)]*100. […]
In order to obtain peritoneal macrophages, Balb/C mouse strain males, age 8 to 12 weeks, were injected i.p. with 300 μg of zymosan (SIGMA) dissolved in a phosphate buffer (PBS) in a total volume of 0.1 ml/mouse. […] The TNF-α level in the cell supernatant was determined by ELISA procedure (R&D Systems, Biosource). The IL-1 level was determined in an assay identical to the assay for TNF-α by ELISA procedure (R&D Systems). The percentage of inhibition of TNF-α or IL-1 production was calculated by the equation: % inhibition=[1−(TS−NC)/(PC−NC)]*100. […]

Question: How did the “activity in investigated assays” value turn out when `O=Cc1scc2c1-c1ccccc1Sc1ccccc1-2` [Example 14, 2,8-Dithia-dibenzo[e,h]azulene-1-carbaldehyde] was run?
Answer: activity in at least two investigated assays
